# Where two headings read alike, the source gives them in different places.
# What was measured:
# Format in all cases: cell-based
# Parameters in all cases: Emax: dose or concentration left out as unconfirmed
# [1] = target: T1, human FXR:retinoid X receptor (RXR) heterodimer (Homo sapiens, UniProt Q96RI1); test: Full-length FXR reporter gene assay (BSEP response element) in HeLa cells; details: for EC50: mean ± SEM; for FXR max. rel. act.: Supplementary Table 1, relative to GW4064 at 3 µM; for Emax: read-out: max. rel. act. FXR
# T1 construct: pcDNA3-hFXR[32] and pSG5-hRXR[33] served for receptor overexpression in the full-length FXR assay; expressed in transfected cells; host or cells: HeLa
# T1 sequence (P19793 whole entry): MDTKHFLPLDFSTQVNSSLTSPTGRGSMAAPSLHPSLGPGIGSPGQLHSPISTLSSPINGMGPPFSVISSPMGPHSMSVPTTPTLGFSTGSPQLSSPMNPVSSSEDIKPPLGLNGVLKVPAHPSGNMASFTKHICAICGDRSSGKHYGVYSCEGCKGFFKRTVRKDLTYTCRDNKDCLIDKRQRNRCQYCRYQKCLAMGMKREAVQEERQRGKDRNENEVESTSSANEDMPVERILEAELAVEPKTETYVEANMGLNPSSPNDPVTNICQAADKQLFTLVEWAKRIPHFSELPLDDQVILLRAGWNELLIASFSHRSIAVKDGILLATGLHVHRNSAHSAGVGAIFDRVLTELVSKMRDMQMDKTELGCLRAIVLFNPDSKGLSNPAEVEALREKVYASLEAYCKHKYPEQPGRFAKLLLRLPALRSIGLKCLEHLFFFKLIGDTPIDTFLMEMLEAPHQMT
# T1 sequence (Q96RI1 whole entry): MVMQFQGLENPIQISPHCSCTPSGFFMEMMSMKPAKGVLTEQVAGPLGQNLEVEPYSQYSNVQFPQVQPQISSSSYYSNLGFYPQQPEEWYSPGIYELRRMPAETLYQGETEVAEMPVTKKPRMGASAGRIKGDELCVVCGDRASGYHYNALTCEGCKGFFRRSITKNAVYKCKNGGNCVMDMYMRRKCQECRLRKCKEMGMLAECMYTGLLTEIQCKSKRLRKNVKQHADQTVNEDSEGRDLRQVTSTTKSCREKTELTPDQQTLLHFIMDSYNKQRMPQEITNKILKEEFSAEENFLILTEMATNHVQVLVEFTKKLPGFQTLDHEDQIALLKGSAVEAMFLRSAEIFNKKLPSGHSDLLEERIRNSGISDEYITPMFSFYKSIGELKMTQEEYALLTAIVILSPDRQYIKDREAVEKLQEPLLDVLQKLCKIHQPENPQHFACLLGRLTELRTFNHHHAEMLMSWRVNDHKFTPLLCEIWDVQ
# [2] = target: T2, human PPARα ligand-binding domain (Gal4 chimera) (Homo sapiens, UniProt Q07869); test: Gal4 hybrid reporter gene assay, PPARα; details: for EC50: mean ± SEM
# T2 construct: coding for the hinge region and LBD of the canonical isoform of the respective nuclear receptor; expressed in transfected cells; host or cells: HEK293T
# T2 sequence (Q07869 239-466 limits assumed): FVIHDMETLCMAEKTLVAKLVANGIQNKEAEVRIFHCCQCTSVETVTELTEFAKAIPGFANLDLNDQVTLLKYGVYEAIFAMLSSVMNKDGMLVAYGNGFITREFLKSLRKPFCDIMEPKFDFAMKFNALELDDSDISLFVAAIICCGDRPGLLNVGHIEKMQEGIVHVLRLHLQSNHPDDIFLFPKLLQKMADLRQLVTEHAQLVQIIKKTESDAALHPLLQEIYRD
# [3] = target: T3, human PPARγ ligand-binding domain (Gal4 chimera) (Homo sapiens, UniProt P37231); test: Gal4 hybrid reporter gene assay, PPARγ
# T3 construct: coding for the hinge region and LBD of the canonical isoform of the respective nuclear receptor; expressed in transfected cells; host or cells: HEK293T
# T3 sequence (P37231 238-503 limits assumed): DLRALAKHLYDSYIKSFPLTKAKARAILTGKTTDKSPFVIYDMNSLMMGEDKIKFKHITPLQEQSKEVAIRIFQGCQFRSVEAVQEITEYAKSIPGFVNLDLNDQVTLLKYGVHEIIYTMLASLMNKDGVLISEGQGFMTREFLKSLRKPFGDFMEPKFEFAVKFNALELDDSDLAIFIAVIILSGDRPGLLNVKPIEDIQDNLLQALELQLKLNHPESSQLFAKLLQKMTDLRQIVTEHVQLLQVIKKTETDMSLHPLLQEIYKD
# [4] = target: T4, human PPARδ ligand-binding domain (Gal4 chimera) (Homo sapiens, UniProt Q03181); test: Gal4 hybrid reporter gene assay, PPARδ; details: for EC50: mean ± SEM
# T4 construct: coding for the hinge region and LBD of the canonical isoform of the respective nuclear receptor; expressed in transfected cells; host or cells: HEK293T
# T4 sequence (Q03181 211-439 limits assumed): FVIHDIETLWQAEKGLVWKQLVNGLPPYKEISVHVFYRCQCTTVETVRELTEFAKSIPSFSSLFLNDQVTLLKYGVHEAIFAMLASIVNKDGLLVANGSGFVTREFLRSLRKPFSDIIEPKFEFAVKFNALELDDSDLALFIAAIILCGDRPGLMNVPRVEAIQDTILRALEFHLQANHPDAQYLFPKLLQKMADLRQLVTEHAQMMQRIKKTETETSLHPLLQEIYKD
# [5] = Supplementary Table 1, chromene derivatives, n ≥ 2, read-out: FXR EC50
# [6] = PPAR EC50 [M], Supplementary Table 1, chromene derivatives, n ≥ 2
# [7] = Supplementary Table 1, chromene derivatives, mean ± SEM, n ≥ 2, read-out: PPAR EC50
# [8] = Supplementary Table 1, chromene derivatives, n ≥ 2, read-out: PPAR EC50
# [9] = HeLa, n = 3, read-out: EC50 [μM] FXR
# [10] = EC50 [μM] PPARα, HEK293T, n = 3
# [11] = EC50 [μM] PPARδ, HEK293T, n = 3
# [12] = HEK293T, mean ± SEM, n = 3, read-out: EC50 [μM] PPARγ
# [13] = HEK293T, n = 3, read-out: EC50 [μM] PPARδ
Compound,"EC50 [1, 5] [µM]",FXR max. rel. act. ([1]; n ≥ 2) [%],"EC50 [2, 6] [M]",Emax ([2]; read-out: PPAR max. rel. act.) [%],"EC50 [3, 7] [µM]",Emax ([3]; read-out: PPAR max. rel. act.) [%],"EC50 [4, 8] [µM]",Emax ([4]; read-out: PPAR max. rel. act.) [%],Emax ([1]; HeLa) [%],"EC50 [1, 9] [µM]","EC50 [2, 10] [M]",Emax ([2]; read-out: max. rel. act. PPARα) [%],EC50 [3] [µM],Emax ([3]; read-out: max. rel. act. PPARγ) [%],"EC50 [4, 11] [µM]",Emax ([4]; read-out: max. rel. act. PPARδ) [%],"EC50 [3, 12] [µM]","EC50 [4, 13] [µM]",preference over PPARγ ([3]; triple FXR/PPARα/δ potency versus PPARγ)
"O=C(O)CCc1cccc(NC(=O)c2ccccc2NC(=O)C2=Cc3ccccc3OC2)c1 [S1, 3-(3-[2-{2H-Chromene-3-carboxamido}benzamido]phenyl)propanoic acid]",4.1 ± 0.8,14 ± 1,5.2e-06 ± 8e-07,26 ± 3,7.7 ± 0.6,6.6 ± 0.2,1.2 ± 0.1,26 ± 1,–,–,–,–,–,–,–,–,–,–,–
"O=C(O)CCc1cccc(NC(=O)c2ccccc2NC(=O)C2=C(Cl)c3ccccc3OC2)c1 [S2, 3-(3-[2-{4-Chloro-2H-chromene-3-carboxamido}benzamido]phenyl)propanoic acid]",11 ± 1,16 ± 1,4.6e-07 ± 3e-08,31 ± 1,2.3 ± 0.1,9 ± 0.1,0.42 ± 0.01,31 ± 1,–,–,–,–,–,–,–,–,–,–,–
"Cc1cccc2c1C=C(C(=O)Nc1ccccc1C(=O)Nc1cccc(CCC(=O)O)c1)CO2 [S3, 3-(3-[2-{5-Methyl-2H-chromene-3-carboxamido}benzamido]phenyl)propanoic acid]",4.3 ± 0.3,11 ± 1,8.3e-07 ± 1e-07,24 ± 1,8 ± 0.8,14 ± 1,0.67 ± 0.04,27 ± 1,–,–,–,–,–,–,–,–,–,–,–
"Cc1ccc2c(c1)C=C(C(=O)Nc1ccccc1C(=O)Nc1cccc(CCC(=O)O)c1)CO2 [S4, 3-(3-[2-{6-Methyl-2H-chromene-3-carboxamido}benzamido]phenyl)propanoic acid]",5.4 ± 0.1,12 ± 1,8.4e-07 ± 1e-07,29 ± 1,5 ± 1.6,36 ± 8,1.5 ± 0.2,16 ± 1,–,–,–,–,–,–,–,–,–,–,–
"O=C(O)CCc1cccc(NC(=O)c2ccccc2NC(=O)C2=Cc3cc(F)ccc3OC2)c1 [S5, 3-(3-[2-{6-Fluoro-2H-chromene-3-carboxamido}benzamido]phenyl)propanoic acid]",> 10,–,1.8e-06 ± 6e-07,20 ± 1,4.6 ± 0.8,17 ± 1,2.6 ± 0.8,20 ± 3,–,–,–,–,–,–,–,–,–,–,–
O=C(O)CCc1cccc(NC(=O)c2ccccc2NC(=O)C2=Cc3cc(Cl)ccc3OC2)c1 [S6],> 10,–,3.1e-06 ± 4e-07,27 ± 2,3 ± 0.5,5.1 ± 0.3,1.6 ± 0.5,14 ± 2,–,–,–,–,–,–,–,–,–,–,–
Cc1ccc2c(c1)OCC(C(=O)Nc1ccccc1C(=O)Nc1cccc(CCC(=O)O)c1)=C2 [S7],> 10,–,3.4e-06 ± 1e-07,38 ± 1,5 ± 1.6,7.9 ± 1.4,1.1 ± 0.1,30 ± 1,–,–,–,–,–,–,–,–,–,–,–
Cc1cccc2c1OCC(C(=O)Nc1ccccc1C(=O)Nc1cccc(CCC(=O)O)c1)=C2 [S8],> 10,–,3.5e-06 ± 2e-07,29 ± 1,3.1 ± 0.2,9.3 ± 0.5,1.2 ± 0.4,18 ± 2,–,–,–,–,–,–,–,–,–,–,–
O=C(O)CCc1cccc(NC(=O)c2ccccc2NC(=O)C2=Cc3cccc(Cl)c3OC2)c1 [S9],> 10,–,2.3e-06 ± 1e-07,35 ± 1,2.4 ± 0.2,7.6 ± 0.2,0.91 ± 0.36,16 ± 2,–,–,–,–,–,–,–,–,–,–,–
COc1cccc2c1OCC(C(=O)Nc1ccccc1C(=O)Nc1cccc(CCC(=O)O)c1)=C2 [S10],2.8 ± 0.3,14 ± 1,6.6e-06 ± 1.8e-06,26 ± 5,23 ± 2,8.6 ± 0.6,5.2 ± 0.2,30 ± 1,–,–,–,–,–,–,–,–,–,–,–
O=C(O)CCc1cccc(NC(=O)c2ccccc2NC(=O)C2=Cc3cccc(O)c3OC2)c1 [S11],> 10,–,> 3e-05,–,7.9 ± 1.2,6.3 ± 0.5,> 30,–,–,–,–,–,–,–,–,–,–,–,–
O=C(O)Cc1ccccc1NC(=O)c1ccccc1NC(=O)c1ccc2ccccc2c1 [compound 7],–,–,–,–,–,–,–,–,31,9.2 ± 0.2,1.4e-06 ± 1e-07,33,1.7 ± 0.1,17 ± 10,> 10,–,–,–,–
O=C(O)CCc1cccc(NC(=O)c2ccccc2NC(=O)c2ccc3ccccc3c2)c1 [compound 9],–,–,–,–,–,–,–,–,20,2.6 ± 0.3,1e-06 ± 2e-07,31,2.6 ± 0.3,19,0.65 ± 0.03,28,–,–,–
O=C(O)CCc1ccc(NC(=O)c2ccccc2NC(=O)c2ccc3ccccc3c2)cc1 [compound 12],–,–,–,–,–,–,–,–,21 ± 10,2.1 ± 0.1,> 3e-05,–,–,–,–,–,> 30,> 30,–
O=C(O)COc1cccc(NC(=O)c2ccccc2NC(=O)c2ccc3ccccc3c2)c1 [compound 13],–,–,–,–,–,–,–,–,19,5 ± 1,1e-05 ± 1e-06,35,19 ± 1,11,10 ± 1,43,–,–,–
O=C(O)CNc1cccc(NC(=O)c2ccccc2NC(=O)c2ccc3ccccc3c2)c1 [compound 14],–,–,–,–,–,–,–,–,31,1.3 ± 0.1,> 3e-05,–,–,7.7,–,83,5.7 ± 0.1,3.5 ± 0.2,–
CC(C)(Nc1cccc(NC(=O)c2ccccc2NC(=O)c2ccc3ccccc3c2)c1)C(=O)O [compound 15],–,–,–,–,–,–,–,–,10,0.45 ± 0.01,1.7e-06 ± 1e-07,71,5.1 ± 0.9,18,3.6 ± 0.2,42,–,–,–
CC(C)(C)c1ccc(C(=O)Nc2cccc(CCC(=O)O)c2)c(NC(=O)c2ccc3ccccc3c2)c1 [compound 24],–,–,–,–,–,–,–,–,–,–,3.1e-07 ± 8e-08,63,1.5 ± 0.1,20,–,–,–,–,approximately fivefold preference over PPARγ
O=C(O)CCc1cccc(NC(=O)c2ccccc2NC(=O)c2ccc(-c3ccoc3)cc2)c1 [compound 32],–,–,–,–,–,–,–,–,20,0.23 ± 0.01,1.6e-06 ± 3e-07,31,4.2 ± 0.9,38,–,–,–,–,–
